Test results: patent US10053468B2, “Heterocyclic compound” (TAKEDA PHARMACEUTICAL COMPANY LIMITED, priority 2013, dated 2018)
Read-outs that look alike come from different tables or passages of the source.

Columns and labels:
[1] = target: T1, RORγt (Homo sapiens, UniProt P51449); experiment: RORγt binding test using fluorescent-labeled cholesterol (TR-FRET); settings: read-out: Binding inhibitory rate of fluorescent-labeled cholesterol to RORγt at test compound 1 μM (%)
T1 sequence (P51449 1-497 isoform P51449-2): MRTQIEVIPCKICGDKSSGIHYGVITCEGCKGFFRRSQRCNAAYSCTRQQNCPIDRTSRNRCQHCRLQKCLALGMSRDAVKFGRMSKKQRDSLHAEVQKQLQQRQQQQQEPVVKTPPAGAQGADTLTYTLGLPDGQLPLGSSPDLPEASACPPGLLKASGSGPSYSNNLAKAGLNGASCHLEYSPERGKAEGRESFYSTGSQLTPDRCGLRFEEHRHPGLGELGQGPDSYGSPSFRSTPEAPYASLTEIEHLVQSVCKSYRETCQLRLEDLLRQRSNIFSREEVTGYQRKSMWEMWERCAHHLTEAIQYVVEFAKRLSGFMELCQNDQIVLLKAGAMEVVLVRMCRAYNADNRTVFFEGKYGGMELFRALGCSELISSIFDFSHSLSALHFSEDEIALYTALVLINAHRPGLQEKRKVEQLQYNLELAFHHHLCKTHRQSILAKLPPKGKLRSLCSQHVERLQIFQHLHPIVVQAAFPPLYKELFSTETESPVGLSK
In short: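 After 20 min at room temperature with His-tagged RORγt and BODIPY-cholesterol in pH 7.5 Tris buffer (NaCl, DTT, BSA), compound wells got terbium anti-His antibody for another 20 min. Time-resolved FRET was read with excitation 320 nm, emission 520 nm and a 100 µs delay.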

[2] = target: T1, RORγt; experiment: Jurkat reporter test (human IL-17 ROR response element luciferase, RORγt vector); assay type: cell-based; settings: read-out: Luminescence level inhibitory rate at test compound 3 μM (%)
In short: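 Luminescence (Bright-Glo, 10 min, RT) was measured after overnight compound treatment of electroporated Jurkat cells (1350 V, 10 ms interval, 3 pulses). The reaction medium was RPMI with 10% lipid-reduced FCS, 10 mM HEPES (pH 7.5) and 5 μM lovastatin.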

[3] = target: T1, RORγt; experiment: RORγt binding test using fluorescent-labeled synthetic ligand (TR-FRET); settings: read-out: Binding inhibitory rate of fluorescent-labeled synthetic ligand to RORγt at test compound 1 μM (%)
In short: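 His-tagged RORγt (diluted to 240 nM) with compound, then fluorescent synthetic ligand (diluted to 12 μM), 20 min at room temperature, followed by Tb anti-His antibody (diluted to 8 nM), 20 min.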

[4] = target: T1, RORγt; experiment: Cofactor recruitment test (Alpha Screen, biotinylated SRC-1 peptide); assay type: biochemical; settings: read-out: Signal value inhibitory rate at test compound 1 μM (%)
Description: Cofactor Recruitment Test
Cofactor recruitment test was performed by Alpha Screen (Histidine Detection Kit, PerkinElmer) method. First, a test compound was diluted with an assay buffer (50 mM Tris-HCl (pH 7.5), 50 mM KCl, 1 mM DTT, 0.1% BSA) and added to a 384 well plate by 5 μL. […] The mixture was stood in a dark place for 1 hr, and the signal value was measured by Envision (PerkinElmer).

[5] = test compound 3 μM, Jurkat cells

| inhibition at 1 µM [1] [%] | inhibition at 3 µM [2, 5] [%] | inhibition at 1 µM [3] [%] | inhibition at 1 µM [4] [%] | Structure (SMILES) | inhibition at 3 µM ([2]; Jurkat) [%] |
| --- | --- | --- | --- | --- | --- |
| 101 | 97 | 102 | 85 | CCOCC(C)(C)c1c(F)cc(NC(=O)[C@H]2c3ccc(OCC)cc3CCN2C(=O)c2cc(O)no2)cc1F [Example 167, (1R)-6-ethoxy-N-(4-(1-ethoxy-2-methylpropan-2-yl)-3,5-difluorophenyl)-2-((3-hydroxy-1,2-oxazol-5-yl)carbonyl)-1,2,3,4-tetrahydroisoquinoline-1-carboxamide] | – |
| 102 | 99 | 102 | 82 | COCC(C)(C)c1ccc(NC(=O)[C@H]2c3ccc(OC)cc3CCN2C(=O)Cc2cc(O)no2)cc1F [Example 70, (1R)-N-(3-fluoro-4-(1-methoxy-2-methylpropan-2-yl)phenyl)-2-((3-hydroxy-1,2-oxazol-5-yl)acetyl)-6-methoxy-1,2,3,4-tetrahydroisoquinoline-1-carboxamide] | – |
| 102 | 99.5 | 102 | 82 | CCOc1ccc2c(c1)CCN(C(=O)Cc1cc(O)no1)[C@H]2C(=O)Nc1cc(F)c2c(c1)CCC2(C)C [Example 66, (1R)-6-ethoxy-N-(7-fluoro-1,1-dimethyl-2,3-dihydro-1H-inden-5-yl)-2-((3-hydroxy-1,2-oxazol-5-yl)acetyl)-1,2,3,4-tetrahydroisoquinoline-1-carboxamide] | – |
| 103 | 101 | 101 | 100 | COc1ccc2c(c1)CCN(C(=O)Cc1cccnc1)[C@H]2C(=O)Nc1cc(F)c(C(C)(C)C(=O)N2CCCC2)c(F)c1 [Example 105, (1R)-N-(3,5-difluoro-4-(2-methyl-1-oxo-1-(pyrrolidin-1-yl)propan-2-yl)phenyl)-6-methoxy-2-(pyridin-3-ylacetyl)-1,2,3,4-tetrahydroisoquinoline-1-carboxamide] | – |
| 97.7 | 102 | 101 | 81.5 | COc1ccc2c(c1)CCN(C(=O)[C@H]1CNC(=O)C1)[C@H]2C(=O)Nc1ccc(C(C)(C)C)c(F)c1 [Example 26, (1R)-N-(4-tert-butyl-3-fluorophenyl)-6-methoxy-2-(((3R)-5-oxopyrrolidin-3-yl)carbonyl)-1,2,3,4-tetrahydroisoquinoline-1-carboxamide] | – |
| 101 | 98 | 102 | 85 | CCOc1ccc2c(c1)CCN(C(=O)c1cc(O)no1)[C@H]2C(=O)Nc1cc(F)c(C(C)(C)COCC(F)F)c(F)c1 [Example 154, (1R)-N-(4-(1-(2,2-difluoroethoxy)-2-methylpropan-2-yl)-3,5-difluorophenyl)-6-ethoxy-2-((3-hydroxy-1,2-oxazol-5-yl)carbonyl)-1,2,3,4-tetrahydroisoquinoline-1-carboxamide] | – |
| 102 | 102 | 102 | 93 | COCc1ccc2c(c1)CCN(C(=O)Cc1cc(O)no1)[C@H]2C(=O)Nc1cc(F)c2c(c1)CCC2(C)C [Example 169, (1R)-N-(7-fluoro-1,1-dimethyl-2,3-dihydro-1H-inden-5-yl)-2-((3-hydroxy-1,2-oxazol-5-yl)acetyl)-6-(methoxymethyl)-1,2,3,4-tetrahydroisoquinoline-1-carboxamide] | – |
| 100 | 104 | 102 | 98 | COCc1ccc2c(c1)CCN(C(=O)Cc1cc(O)no1)[C@H]2C(=O)Nc1ccc(C(C)(C)C)c(F)c1 [Example 132, (1R)-N-(4-tert-butyl-3-fluorophenyl)-2-((3-hydroxy-1,2-oxazol-5-yl)acetyl)-6-(methoxymethyl)-1,2,3,4-tetrahydroisoquinoline-1-carboxamide] | – |
| 102 | 101 | 102 | 87 | COc1ccc2c(n1)CCN(C(=O)Cc1cc(O)no1)[C@H]2C(=O)Nc1cc(F)c2c(c1)CCC2(C)C [Example 117, (5R)-N-(7-fluoro-1,1-dimethyl-2,3-dihydro-1H-inden-5-yl)-6-((3-hydroxy-1,2-oxazol-5-yl)acetyl)-2-methoxy-5,6,7,8-tetrahydro-1,6-naphthyridine-5-carboxamide] | – |
| 101 | 101 | 101 | 89 | CCOc1ccc2c(n1)CCN(C(=O)Cc1cc(O)no1)[C@H]2C(=O)Nc1cc(F)c2c(c1)CCC2(C)C [Example 147, (5R)-2-ethoxy-N-(7-fluoro-1,1-dimethyl-2,3-dihydro-1H-inden-5-yl)-6-((3-hydroxy-1,2-oxazol-5-yl)acetyl)-5,6,7,8-tetrahydro-1,6-naphthyridine-5-carboxamide] | – |
| 100 | 97 | 101 | 80 | COc1ccc2c(c1)CCN(C(=O)Cc1cc(O)no1)[C@H]2C(=O)Nc1cc(F)c(C(C)(C)COCC(F)F)c(F)c1 [Example 159, (1R)-N-(4-(1-(2,2-difluoroethoxy)-2-methylpropan-2-yl)-3,5-difluorophenyl)-2-((3-hydroxy-1,2-oxazol-5-yl)acetyl)-6-methoxy-1,2,3,4-tetrahydroisoquinoline-1-carboxamide] | – |
| 102 | 102 | 101 | 101 | COc1ccc2c(c1)CCN(C(=O)CC(F)(F)F)[C@H]2C(=O)Nc1cc(F)c(C(C)(C)C(=O)N2CCCC2)c(F)c1 [Example 104, (1R)-N-(3,5-difluoro-4-(2-methyl-1-oxo-1-(pyrrolidin-1-yl)propan-2-yl)phenyl)-6-methoxy-2-(3,3,3-trifluoropropanoyl)-1,2,3,4-tetrahydroisoquinoline-1-carboxamide] | – |
| 99 | 94 | 102 | 74 | COc1ccc2c(c1)CCN(C(=O)Cc1cc(O)no1)[C@H]2C(=O)Nc1cc(F)c(C(C)(C)COCC2CC2)c(F)c1 [Example 157, (1R)-N-(4-(1-(cyclopropylmethoxy)-2-methylpropan-2-yl)-3,5-difluorophenyl)-2-((3-hydroxy-1,2-oxazol-5-yl)acetyl)-6-methoxy-1,2,3,4-tetrahydroisoquinoline-1-carboxamide] | – |

| Structure (SMILES) | inhibition at 1 µM [1] [%] | inhibition at 3 µM [2, 5] [%] | inhibition at 1 µM [3] [%] | inhibition at 1 µM [4] [%] | inhibition at 3 µM ([2]; Jurkat) [%] |
| --- | --- | --- | --- | --- | --- |
| CC[Si](C)(C)c1c(F)cc(NC(=O)[C@H]2c3ccc(OC)nc3CCN2C(=O)CCCC(=O)O)cc1F [Example 114, 5-((5R)-5-((4-(ethyl(dimethyl)silyl)-3,5-difluorophenyl)carbamoyl)-2-methoxy-7,8-dihydro-1,6-naphthyridin-6(5H)-yl)-5-oxopentanoic acid] | 103 | – | 102 | 98 | 101 |
| COc1ccc2c(c1)CCN(C(=O)Cc1cc(O)no1)[C@H]2C(=O)Nc1ccc([Si](C)(C)C)c(F)c1 [Example 73, (1R)-N-(3-fluoro-4-(trimethylsilyl)phenyl)-2-((3-hydroxy-1,2-oxazol-5-yl)acetyl)-6-methoxy-1,2,3,4-tetrahydroisoquinoline-1-carboxamide] | 102 | – | 102 | 90 | 100 |
